According to the OPERA property sets (Mansouri et al. 2018):
≈ marks a conversion by molar mass, not a printed value. Where a SMILES comes first, the peptide text is derived from it.

SMILES | solubility (20 °C) | solubility (25 °C) | also measured
CNc1ncc2nccnc2n1 | 19.4 mM (≈ 3130 µg/mL) | – | –
COC(=O)OC(C)C(=O)OC (centres undefined) | – | 251 mM (≈ 40700 µg/mL) | –
Cc1nc(Br)[nH]c1[N+](=O)[O-] | – | 16.2 mM (≈ 3330 µg/mL) | –
O=C(O)c1occ(Cl)c1Cl | 14.9 mM (≈ 2700 µg/mL) | – | –
Cn1c(=O)ncc2nccnc21 | 42.5 mM (≈ 6900 µg/mL) | – | –
O=C(O)c1ccc(Cl)o1 | 19.1 mM (≈ 2800 µg/mL) | – | –
CCC(NC=O)C(=O)O (centres undefined) | – | 256 mM (≈ 33600 µg/mL) | –
CC(C)C1(Br)C(=O)NC(=O)NC1=O | 6.18 mM (≈ 1540 µg/mL) | – | –
C[Si](C)(C)CCN | – | 15.6 mM (≈ 1830 µg/mL) | –
O=C(O)c1c(Cl)c(Cl)c(Cl)c(Cl)c1C(=O)O | 11.8 mM (≈ 3600 µg/mL) | – | –
COC(=O)c1cc(O)c(OC)c(O)c1 | 25.2 mM (≈ 5000 µg/mL) | – | –
CC=Cc1ccc(OCC(=O)O)c(OC)c1 | – | – | solubility: 26.1 mM (≈ 5810 µg/mL)
O=S(=O)(CCCl)CCOCCS(=O)(=O)CCCl | – | – | solubility: 11.5 mM (≈ 3750 µg/mL)
Nc1c(Br)cc(Br)c(S(=O)(=O)O)c1Br | – | – | solubility (22 °C): 324 mM (≈ 133000 µg/mL)
NC(=S)NCNC(N)=S | – | – | solubility (21 °C): 21.3 mM (≈ 3500 µg/mL)
NS(=O)(=O)c1ccc(S(N)(=O)=O)cc1 | – | 2.96 mM (≈ 700 µg/mL) | –
Oc1c(Cl)cc(Cl)cc1Cc1ccccc1 | – | 0.0229 mM (≈ 5.8 µg/mL) | –
CCC(=NO)C(CC)=NO | – | 2.8 mM (≈ 404 µg/mL) | –
CC(C)C[C@H](N)C(=O)N[C@@H](C)C(=O)NCC(=O)O (H-Leu-Ala-Gly-OH) | – | – | solubility: 127 mM (≈ 33000 µg/mL)
O=C(O)c1cccc2ncccc12 | 2.1 mM (≈ 364 µg/mL) | – | –
CN(C)c1ncnc2nccnc12 | 95.1 mM (≈ 16700 µg/mL) | – | –

SMILES | solubility (20 °C) | solubility (25 °C) | also measured
CC(=O)CC(CC(=O)O)c1ccccc1 (centres undefined) | – | 35.8 mM (≈ 7380 µg/mL) | –
NNC(=O)[C@H](O)[C@@H](O)[C@H](O)[C@H](O)CO | – | – | solubility: 317 mM (≈ 66700 µg/mL)
NNC(=O)c1cccnc1 | 729 mM (≈ 100000 µg/mL) | – | –
O=c1ccc(Br)cc(Br)c1O | – | 0.314 mM (≈ 88 µg/mL) | –
Cc1ccc2[nH]c(=O)c(=O)[nH]c2c1 | 0.908 mM (≈ 160 µg/mL) | – | –
CCC(CC)(C(=O)O)C(CC)(CC)C(=O)O | – | 1.09 mM (≈ 250 µg/mL) | –
CC(C=NO)=NO | – | – | solubility (26 °C): 451 mM (≈ 46000 µg/mL)
O=C(O)c1cccs1 | – | 58.5 mM (≈ 7500 µg/mL) | –
CCCCS(=O)(=O)C(S(=O)(=O)CCCC)S(=O)(=O)CCCC | – | 1.06 mM (≈ 400 µg/mL) | –
CCC(CC)(CC)NC(N)=O | 15.2 mM (≈ 2400 µg/mL) | – | –
CCS(=O)(=O)CCSP(=S)(OC)OC | – | – | solubility: 2.87 mM (≈ 800 µg/mL)
O=C(NC(=O)c1cccnc1)Nc1ccccc1 | – | 0.414 mM (≈ 100 µg/mL) | –
CCN(CC)CN(CC)CC | – | – | solubility: 632 mM (≈ 100000 µg/mL)
CC(=O)OC(C)C#N (centres undefined) | – | – | solubility: 1770 mM (≈ 200000 µg/mL)
CC(C)C1CCC(=NO)C(=NO)C1 (centres undefined) | – | 4.07 mM (≈ 750 µg/mL) | –
O=[N+]([O-])CCl | – | – | solubility: 524 mM (≈ 50000 µg/mL)
O=c1[nH]ccc2cccnc12 | 72 mM (≈ 10500 µg/mL) | – | –
O=NN1CCCC1=O | – | 1130 mM (≈ 129000 µg/mL) | –
CSC1=CC(=O)c2ccccc2C1=O | – | – | solubility (26 °C): 0.0343 mM (≈ 7 µg/mL)
O=C(O)c1cc(N=Nc2ccccc2)ccc1O | – | 0.879 mM (≈ 213 µg/mL) | –
CCCCCCCCCNC(=O)c1cccnc1 | – | 0.725 mM (≈ 180 µg/mL) | –

SMILES | solubility (20 °C) | solubility (25 °C) | also measured
CCn1c(=O)c2c(ncn2C)n(C)c1=O | – | – | solubility (30 °C): 191 mM (≈ 39800 µg/mL)
O=C(O)c1ccc(O)cc1O | – | 37.5 mM (≈ 5780 µg/mL) | –
CC12CCC(C(CO)C1=O)C2(C)C (centres undefined) | – | – | solubility: 610 mM (≈ 111000 µg/mL)
O=C(O)CCCCCc1ccccc1 | – | – | solubility (30 °C): 2.5 mM (≈ 480 µg/mL)
O=[N+]([O-])c1ccccc1CO | 32.7 mM (≈ 5000 µg/mL) | – | –
COC[C@@H](N)C(=O)O (racemic) | 4490 mM (≈ 535000 µg/mL) | – | –
Cc1cc(Cl)c(O)c(Cl)c1 | – | 38 mM (≈ 6730 µg/mL) | –
CN(C)CCCCl | – | – | solubility: 633 mM (≈ 77000 µg/mL)
CC(=O)CC(=O)c1ccccc1 | – | 2.36 mM (≈ 383 µg/mL) | –
Cc1ncnc2c(O)cccc12 | 2.5 mM (≈ 400 µg/mL) | – | –
COCCCl | – | 846 mM (≈ 80000 µg/mL) | –
NC1=NC(C(=O)O)CCS1 (centres undefined) | 187 mM (≈ 30000 µg/mL) | – | –
NC(=O)C(Br)(Br)Br | 54.1 mM (≈ 16000 µg/mL) | – | –
CC(NC(=O)C=CC(=O)O)C(=O)O (centres undefined) | – | – | solubility: 107 mM (≈ 20000 µg/mL)
ClCCOCOCCCl | 45.1 mM (≈ 7800 µg/mL) | – | –
CC(=O)OOC(=O)c1ccccc1 | – | 3.55 mM (≈ 639 µg/mL) | –
CC(C)Cc1ncc[nH]1 | 89.4 mM (≈ 11100 µg/mL) | – | –
CN(C)c1ncc2nccnc2n1 | 2280 mM (≈ 400000 µg/mL) | – | –
CCCCCCOC(=O)c1cccnc1 | – | 2.22 mM (≈ 460 µg/mL) | –
CCC(=O)OCc1ccc(Cl)cc1Cl | 0.858 mM (≈ 200 µg/mL) | – | –
CCC(CC)(S(=O)(=O)CC)S(=O)(=O)CC | – | – | solubility: 8.66 mM (≈ 2220 µg/mL)

SMILES | solubility (20 °C) | solubility (25 °C) | also measured
ON=C1CCCCCC1=NO | – | 37.6 mM (≈ 5870 µg/mL) | –
CSc1ncc2nccnc2n1 | 17.5 mM (≈ 3130 µg/mL) | – | –
Nc1ncc2nccnc2n1 | 5.04 mM (≈ 741 µg/mL) | – | –
CC(C)[C@H](NCCC#N)C(=O)O | – | 75.2 mM (≈ 12800 µg/mL) | –
Cn1cnc2c1c(=O)n(CC(=O)O)c(=O)n2C | – | 42 mM (≈ 10000 µg/mL) | –
CCC(CC)(C(N)=O)C(N)=O | – | – | solubility: 63.2 mM (≈ 10000 µg/mL)
CC(NC(N)=O)NC(N)=O | – | – | solubility (28 °C): 256 mM (≈ 37400 µg/mL)
Cc1cc(C)c([PH](=O)O)c(C)c1 | – | 1.62 mM (≈ 299 µg/mL) | –
N=C(NO)C(=N)NO | – | 167 mM (≈ 19700 µg/mL) | –
O=C(c1ccc(Cl)cc1Cl)N(O)c1ccccc1 | – | – | solubility: 0.213 mM (≈ 60 µg/mL)
O=[N+]([O-])c1cc(CCO)ccc1O | – | 69.9 mM (≈ 12800 µg/mL) | –
COCCCCC=O | – | – | solubility: 2870 mM (≈ 333000 µg/mL)
O=C(CCl)NC(=O)CCl | – | 5.88 mM (≈ 1000 µg/mL) | –
CCCCCCCCOC(=O)c1ccc(O)cc1 | – | – | solubility (30 °C): 0.0599 mM (≈ 15 µg/mL)
O=[N+]([O-])c1ccc(CO)cc1 | 13.1 mM (≈ 2000 µg/mL) | – | –
CCCn1c(=O)c2c(ncn2C)n(C)c1=O | – | – | solubility (30 °C): 61.9 mM (≈ 13800 µg/mL)
CCC(C)(O)C(O)c1ccccc1 (centres undefined) | 18.9 mM (≈ 3400 µg/mL) | – | –
Nc1ccc2snnc2c1 | – | – | solubility: 49.6 mM (≈ 7500 µg/mL)
CN1c2ccccc2C(O)(c2ccccc2)c2ccccc21 | – | 0.125 mM (≈ 35.9 µg/mL) | –
O=C(O)C(S)CS (centres undefined) | – | – | solubility: 579 mM (≈ 80000 µg/mL)
CC(C)C1OC(=O)c2ccccc21 (centres undefined) | – | 5.54 mM (≈ 976 µg/mL) | –
